Reference: US9206432B2, “Sulfonylurea-responsive repressor proteins” (priority 2008, dated 2015)

Columns and labels:
[1] = pH 7; cited from earlier work
tet operator (tetO) = assay: Electrophoretic gel mobility shift assay (EMSA), operator binding and release by inducer; details: ethametsulfuron repressor protein (L7A11) on TetO (FIG. 7)
[2] = test system: lacZ under control of the tetA promoter (PtetA) in E. coli KM3; type: cell-based; details: L1 hits, SU compounds at 20 μg/ml

Row | Structure (SMILES) | logP [1] | operator release by inducer (tet operator (tetO)) | potency as activator compared with Harmony® [2]
1 | COC(=O)c1sccc1S(=O)(=O)NC(=O)Nc1nc(C)nc(OC)n1 [Harmony®, Thifensulfuron-methyl] | ~0.02 |  | 
2 | Cc1c2c(c(O)c3c(O)cccc13)C(=O)[C@]1(O)C(=O)C(C(N)=O)=C(O)[C@@H](N(C)C)[C@@H]1C2 [atc, anhydrotetracycline] |  | No change in operator release | 
3 | CCOC(=O)c1ccccc1S(=O)(=O)NC(=O)Nc1nc(Cl)cc(OC)n1 [chlorimuron, Chlorimuron-ethyl, reference compound] |  |  | more potent activators than the starting ligand Harmony®
4 | COc1nc(C)nc(NC(=O)NS(=O)(=O)c2ccccc2Cl)n1 [chlorsulfuron, 2 chloro N ((4 methoxy 6 methy 1,3,5 triazine 2 yl)aminocarbonyl)benzenesulfonamide, reference compound] |  |  | more potent activators than the starting ligand Harmony®
5 | CCOc1nc(NC)nc(NC(=O)NS(=O)(=O)c2ccccc2C(=O)OC)n1 [ethametsulfuron, Ethametsulfuron-methyl, reference compound] |  | inducer preference for operator release by Es compared to Cs | more potent activators than the starting ligand Harmony®
